Values quoted from earlier work in PubChem BioAssay AID1259409 (Chemical Carcinogenesis Research Information System (CCRIS), 2018).

Test system: rodent chemically induced tumor inhibition, incidence and multiplicity
Test: CCRIS tumor inhibitor studies
Conditions: Carcinogen: BENZO[A]PYRENE, 50-32-8, Dose [Inhibitor]: 0, 10 MG SUSPENDED IN 0.3 ML COTTONSEED OIL 3/WK FOR 4 WK ON DAYS OTHER THAN THE CARCINOGEN TREATMENT, 3 ADDITIONAL DOSE, Route [Inhibitor]: GAVAGE, Species: MOUSE, Strain/Sex: STRAIN-A/FEMALE, Dose [Carcinogen]: 1 MG IN 0.3 ML COTTONSEED OIL 2/WK FOR 4 WK, Promoter: NONE USED

CCCc1cc(OC)c2c(c1)OCO2
tumour outcome (control, treated, inhibition, significance) (Target Tissue: Type of Lesion: FORESTOMACH: TUMOR): 12/17 (71%), 12/19 (63%), 11%, not significant
tumour outcome (control, treated, inhibition, significance) (Target Tissue: Type of Lesion: LUNG: TUMOR): 17/17 (100%), 19/19 (100%), 0%, not significant
